Measurements: patent US20230096028A1, “BICYCLIC HETEROCYCLYL COMPOUNDS AND USES THEREOF” (Revolution Medicines, Inc., priority 2019, published 2023)

Assays:
[1] = target: T1, SOS1 catalytic domain (residues 564-1049) (Homo sapiens, UniProt Q07889); experiment: Potency Assay: binding affinity to SOS1 using Surface Plasmon Resonance (SPR); parameters: SOS1 catalytic domain (residues 564-1049) immobilized on a sensor chip; details: immobilized SOS1 catalytic domain (residues 564-1049), read-out: SOS1 SPR Equilibrium Kd
T1 sequence (Q07889 564-1049): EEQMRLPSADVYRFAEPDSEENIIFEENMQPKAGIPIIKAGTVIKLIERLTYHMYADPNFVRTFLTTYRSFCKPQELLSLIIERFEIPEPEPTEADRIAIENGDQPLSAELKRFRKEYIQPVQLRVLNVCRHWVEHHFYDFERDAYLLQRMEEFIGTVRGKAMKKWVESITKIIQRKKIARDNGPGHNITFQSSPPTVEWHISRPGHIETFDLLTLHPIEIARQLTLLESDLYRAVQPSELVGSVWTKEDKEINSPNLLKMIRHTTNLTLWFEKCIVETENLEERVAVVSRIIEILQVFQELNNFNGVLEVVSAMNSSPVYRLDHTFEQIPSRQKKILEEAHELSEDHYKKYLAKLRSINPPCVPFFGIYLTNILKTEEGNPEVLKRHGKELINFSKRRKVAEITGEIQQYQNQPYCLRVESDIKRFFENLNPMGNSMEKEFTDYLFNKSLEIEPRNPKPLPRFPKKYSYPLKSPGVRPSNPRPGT
Protocol: Data was reported as equilibrium dissociation constant (Kd) values.
Using a GE Biacore 8K SPR instrument, avi-tagged SOS1 catalytic domain protein was immobilized to a level of approximately 6000 response units (RU) on a streptavidin-coated SPR sensor chip in assay buffer containing 0.01 M HEPES, 0.15 M NaCl and 0.05% v/v Surfactant P20. […] For each test compound, a separate 0 μM sample was generated for use during subsequent double reference subtraction. Serially for each test compound, individual dilution samples were flowed over the immobilized SOS1 protein at a flow rate of 50 μL/minute to monitor the association with SOS1. Dissociation of bound test compound from the SOS1 protein was immediately monitored by flowing assay buffer over the sensor surface and monitoring the decrease in binding signal back to the baseline level seen in the absence of compound. This was repeated for all compound dilutions in each series. The binding level response for each test compound concentration was noted immediately prior to the end of the association phase, and a secondary plot generated showing binding response level versus test compound concentration generated for each compound dilution series.

[2] = target: T1, SOS1 catalytic domain (residues 564-1049); experiment: Mode of Action Assay: inhibition of SOS1 nucleotide exchange activity (SOS1 TR-FRET IC50 Assay)

SMILES	Kd [1]	IC50 [2]
C[C@@H](Nc1nc(Cl)nc2c1CN(C(=O)c1nccnn1)C2)c1cc(N)cc(C(F)(F)F)c1 [Example 64]	> 400 nM	> 1000 nM
C[C@@H](Nc1nc(Cl)nc2c1CN(S(=O)(=O)N1CCN(C)CC1)C2)c1cc(N)cc(C(F)(F)F)c1 [Example 25]	< 400 nM	< 1000 nM
C[C@@H](Nc1nc(Cl)nc2c1CN(C(=O)N1CCc3cccnc31)C2)c1cccc(C(F)(F)F)c1 [Example 369]	< 400 nM	< 1000 nM
C[C@@H](Nc1nc(Cl)nc2c1CN(C(=O)N1CCNC(=O)C1)C2)c1cc(N)cc(C(F)(F)F)c1 [Example 367]	< 400 nM	< 1000 nM
COc1cccnc1C(=O)N1Cc2nc(Cl)nc(N[C@H](C)c3cc(N)cc(C(F)(F)F)c3)c2C1 [Example 74]	< 400 nM	< 1000 nM
COc1ccc(C(=O)N2Cc3nc(Cl)nc(N[C@H](C)c4cc(N)cc(C(F)(F)F)c4)c3C2)cc1OC [Example 172]	< 400 nM	< 1000 nM
C[C@@H](Nc1nc(Cl)nc2c1CN(C(=O)c1cc3c(cn1)OCCO3)C2)c1cc(N)cc(C(F)(F)F)c1 [Example 175]	> 400 nM	> 1000 nM
C[C@@H](Nc1nc(Cl)nc2c1CN(C(=O)C1CCOCC1)C2)c1cc(N)cc(C(F)(F)F)c1 [Example 116, N-[(1R)-1-[3-amino-5-(trifluoromethyl)phenyl]ethyl]-2-chloro-6-(oxane-4-carbonyl)-5H,6H,7H-pyrrolo[3,4-d]pyrimidin-4-amine]	< 400 nM	< 1000 nM
COC1CN([C@@H]2CCc3nc(Cl)nc(N[C@H](C)c4cc(N)cc(C(F)(F)F)c4)c3C2)C1 [Example 431]	< 400 nM	< 1000 nM
CCOCCS(=O)(=O)N1Cc2nc(Cl)nc(N[C@H](C)c3cc(N)cc(C(F)(F)F)c3)c2C1 [Example 50]	> 400 nM	> 1000 nM
Cc1nc2c(c(N[C@H](C)c3cc(N)cc(C(F)(F)F)c3)n1)CN(c1ccc(Br)cn1)CC2 [Example 42, N-[(1R)-1-[3-amino-5-(trifluoromethyl)phenyl]ethyl]-6-(5-bromo-2-pyridyl)-2-methyl-7,8-dihydro-5H-pyrido[4,3-d]pyrimidin-4-amine]	> 400 nM	> 1000 nM
C[C@@H](Nc1nc(Cl)nc2c1CN(C(=O)c1cnc3cc[nH]c3c1)C2)c1cc(N)cc(C(F)(F)F)c1 [Example 90]	> 400 nM	> 1000 nM
CNC(=O)N1Cc2nc(C)nc(N[C@H](C)c3cc(N)cc(C(F)(F)F)c3)c2C1 [Example 122, 4-{[(1R)-1-[3-amino-5-(trifluoromethyl)phenyl]ethyl]amino}-N,2-dimethyl-5H,6H,7H-pyrrolo[3,4-d]pyrimidine-6-carboxamide]	> 400 nM	> 1000 nM
C[C@@H](Nc1nc(Cl)nc2c1CN(S(=O)(=O)N1CCCC1)CC2)c1cc(N)cc(C(F)(F)F)c1 [Example 182]	< 400 nM	< 1000 nM
Cc1cn2nnc(C(=O)N3Cc4nc(Cl)nc(N[C@H](C)c5cc(N)cc(C(F)(F)F)c5)c4C3)c2c(=O)[nH]1 [Example 103]	< 400 nM	> 1000 nM
C[C@@H](Nc1nc(Cl)nc2c1CN(C(=O)NC1CC[C@H](N)C1)C2)c1cc(N)cc(C(F)(F)F)c1 (stereo partly drawn) [Example 150]	> 400 nM	< 1000 nM
C[C@@H](Nc1nc(Cl)nc2c1CN(C(=O)c1ncc[nH]1)C2)c1cc(N)cc(C(F)(F)F)c1 [Example 95]	> 400 nM	> 1000 nM
C[C@@H](Nc1nc(Cl)nc2c1CN(C(=O)N1CCc3ncccc3C1)C2)c1cc(N)cc(C(F)(F)F)c1 [Example 147]	< 400 nM	> 1000 nM
C[C@@H]1CN(C(=O)N2Cc3nc(Cl)nc(N[C@H](C)c4cc(N)cc(C(F)(F)F)c4)c3C2)C[C@H](C)O1 [Example 163]	< 400 nM	< 1000 nM
C[C@@H](Nc1nc(Cl)nc2c1CN(C(=O)C1CN(C)C1)C2)c1cc(N)cc(C(F)(F)F)c1 [Example 100]	< 400 nM	< 1000 nM
C[C@@H]1CN(C(=O)N2Cc3nc(Cl)nc(N[C@H](C)c4cc(N)cc(C(F)(F)F)c4)c3C2)C[C@@H](C)N1 [Example 143]	< 400 nM	< 1000 nM
C[C@@H](Nc1nc(Cl)nc2c1CN(C(=O)C1CC3CCC(C1)O3)C2)c1cc(N)cc(C(F)(F)F)c1 (stereo partly drawn) [Example 81]	< 400 nM	< 1000 nM

Results, then the compound that gave them:

Kd [1]	IC50 [2]	SMILES
> 400 nM	< 1000 nM	C[C@@H](Nc1nc(Cl)nc2c1CN(C(=O)N1CCN(C)c3ncccc31)C2)c1cccc(C(F)F)c1F [Example 426]
< 400 nM	< 1000 nM	C[C@@H](Nc1nc(Cl)nc2c1CN(S(=O)(=O)N1CCOCC1)C2)c1cccc(C(F)(F)CO)c1 [Example 178]
< 400 nM	< 1000 nM	CCOc1nc2c(c(N[C@H](C)c3cc(N)cc(C(F)(F)F)c3)n1)CN(C(=O)N1CCOCC1)C2 [Example 124, N-[(1R)-1-[3-amino-5-(trifluoromethyl)phenyl]ethyl]-2-ethoxy-6-(morpholine-4-carbonyl)-5H,6H,7H-pyrrolo[3,4-d]pyrimidin-4-amine]
< 400 nM	< 1000 nM	CC(=O)N1CC(C)(C(=O)N2Cc3nc(Cl)nc(N[C@H](C)c4cccc(C(F)F)c4F)c3C2)C1 [Example 346]
< 400 nM	> 1000 nM	C[C@@H](Nc1nc(C(F)(F)F)nc2c1CN(C(=O)N1CCOCC1)C2)c1cc(N)cc(C(F)(F)F)c1 [Example 127, N-[(1R)-1-[3-amino-5-(trifluoromethyl)phenyl]ethyl]-6-(morpholine-4-carbonyl)-2-(trifluoromethyl)-5H,6H,7H-pyrrolo[3,4-d]pyrimidin-4-amine]
< 400 nM	< 1000 nM	COC1(C(=O)N2Cc3nc(C(F)(F)CO)nc(N[C@H](C)c4cccc(C(F)F)c4F)c3C2)CCOCC1 [Example 487, (R)-(2-(1,1-difluoro-2-hydroxyethyl)-4-((1-(3-(difluoromethyl)-2-fluorophenyl)ethyl)amino)-5,7-dihydro-6H-pyrrolo[3,4-d]pyrimidin-6-yl)(4-methoxytetrahydro-2H-pyran-4-yl)methanone]
< 400 nM	< 1000 nM	C[C@@H](Nc1nc(Cl)nc2c1CN(C(=O)N1CCC3(CC1)COC3)C2)c1cc(N)cc(C(F)(F)F)c1 [Example 159]
< 400 nM	< 1000 nM	C[C@@H](Nc1nc(Cl)nc2c1CN(C(=O)CN1CCOCC1)C2)c1cc(N)cc(C(F)(F)F)c1 [Example 89]
< 400 nM	< 1000 nM	C[C@@H](Nc1nc(Cl)nc2c1CN(C(=O)N1CCNc3ncncc31)C2)c1cccc(C(F)F)c1F [Example 427]
> 400 nM	> 1000 nM	O=C(N1CCOCC1)N1Cc2nc(Cl)nc(N[C@H](CO)c3cccc(C(F)(F)F)c3)c2C1 [Example 174]
< 400 nM	< 1000 nM	COC1(C(=O)N2Cc3nc(Cl)nc(N[C@H](C)c4cccc(C(F)F)c4F)c3C2)CCN(C(C)=O)CC1 [Example 345]
< 400 nM	< 1000 nM	C[C@@H](Nc1nc(Cl)nc2c1CN(C(=O)N1CCCC13CCOCC3)C2)c1cc(N)cc(C(F)(F)F)c1 [Example 139]
> 400 nM	> 1000 nM	Cc1nc2c(c(N[C@H](C)c3cc(N)cc(C(F)(F)F)c3)n1)CN(C(=O)N1CCOCC1)CCC2 [Example 136, N-[(1R)-1-[3-amino-5-(trifluoromethyl)phenyl]ethyl]-2-methyl-6-(morpholine-4-carbonyl)-5H,6H,-7H,8H,9H-pyrimido[5,4-c]azepin-4-amine]
< 400 nM	< 1000 nM	CC(=O)N1CC(F)(C(=O)N2Cc3nc(Cl)nc(N[C@H](C)c4cccc(C(F)F)c4F)c3C2)C1 [Example 347]
> 400 nM	> 1000 nM	C[C@@H](Nc1nc(OC2COC2)nc2c1CN(C(=O)N1CCOCC1)C2)c1cc(N)cc(C(F)(F)F)c1 [Example 133, N-[(1R)-1-[3-amino-5-(trifluoro-methyl)phenyl]ethyl]-6-(morpholine-4-carbonyl)-2-(oxetan-3-yl-oxy)-5H,6H,7H-pyrrolo[3,4-d]pyrimidin-4-amine]
> 400 nM	> 1000 nM	C[C@@H](Nc1nc(Cl)nc2c1CN(C(=O)c1csc(N3CCOCC3)n1)C2)c1cc(N)cc(C(F)(F)F)c1 [Example 85]
< 400 nM	< 1000 nM	C[C@@H](Nc1nc(CF)nc2c1CN(C(=O)N1CCOCC1)C2)c1cccc(C(F)F)c1F [Example 540, N-[(1R)-1-[3-(difluoromethyl)-2-fluorophenyl]ethyl]-2-(fluoromethyl)-6-(morpholine-4-carbonyl)-5H,6H,7H-pyrrolo[3,4-d]pyrimidin-4-amine]
